Results taken from PubChem BioAssay (NCI).
“And” between values parts separate entries of the source, which are not always exact repeats. Equal values may be shown once.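 Method: 48-hour compound exposure of cells in 96-well plates, five concentrations, linear interpolation of endpoints. GI50 marks 50% less growth. The concentration for full growth arrest is given as TGI.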

Columns and labels:
Assay in all cases: inhibition of tumour cell growth, NCI panel, 48 h
OVCAR-3 ovarian = system: OVCAR-3 ovarian
HT29 colon = system: HT29 colon
CAKI-1 renal = system: CAKI-1 renal
RXF 393 renal = system: RXF 393 renal
SF-295 CNS = system: SF-295 CNS
UACC-257 melanoma = system: UACC-257 melanoma
UACC-62 melanoma = system: UACC-62 melanoma
CCRF-CEM leukemia = system: CCRF-CEM leukemia
T-47D breast = system: T-47D breast
SNB-19 CNS = system: SNB-19 CNS

Structure (SMILES) | GI50 (OVCAR-3 ovarian) | TGI (OVCAR-3 ovarian) | GI50 (HT29 colon) | TGI (HT29 colon) | GI50 (CAKI-1 renal) | TGI (CAKI-1 renal) | GI50 (RXF 393 renal) | TGI (RXF 393 renal) | GI50 (SF-295 CNS) | TGI (SF-295 CNS) | GI50 (UACC-257 melanoma) | TGI (UACC-257 melanoma) | GI50 (UACC-62 melanoma) | TGI (UACC-62 melanoma) | GI50 (CCRF-CEM leukemia) | TGI (CCRF-CEM leukemia) | GI50 (T-47D breast) | TGI (T-47D breast) | GI50 (SNB-19 CNS) | TGI (SNB-19 CNS)
CCOc1cc(C(C)(C)C)ccc1C1=N[C@@](C)(c2ccc(Cl)cc2)[C@@](C)(c2ccc(Cl)cc2)N1C(=O)N1CCN(CCS(C)(=O)=O)CC1 | 3.14 µM | 9.33 µM | 2.29 µM | 4.74 µM | 0.81 µM | 6.48 µM | 1.76 µM | 3.74 µM | 3.15 µM | 10.5 µM | 1.1 µM | 3.72 µM | 0.793 µM | 3 µM | 2.6 µM | 7.45 µM | 3.7 µM | 57.3 µM | 4.4 µM | 23.2 µM
Cc1ccc2c(c1)C(=O)c1c-2n(CCCN=[N+]=[N-])c(=O)c2cc([N+](=O)[O-])ccc12 | > 100 µM | > 100 µM | 14.7 µM | > 100 µM | 53.9 µM | > 100 µM | > 100 µM | > 100 µM | > 100 µM | > 100 µM | > 100 µM | > 100 µM | 30.3 µM | > 100 µM | 31.7 µM | > 100 µM | 20.7 µM | 93.6 µM | > 100 µM | > 100 µM
C=CCCC(=O)N1C=CC(=O)[C@H](O)[C@@H]1/C=C/c1ccccc1 | 6.13 µM | > 32.5 µM | 14.4 µM | > 32.5 µM | 25.1 µM | > 32.5 µM | 29.9 µM | > 32.5 µM | 10.7 µM | > 32.5 µM | 18 µM | > 32.5 µM | 6.27 µM | 15.6 µM | 5.61 µM | > 32.5 µM | 15.5 µM | > 32.5 µM | 17.2 µM | > 32.5 µM
CN(C)CCNc1nc2ccccc2c2c(=O)c3ccccc3sc12 | 2.06 µM | 5.46 µM | 1.8 µM | 4.81 µM | 3.11 µM | 14.5 µM | 1.51 µM | 4.11 µM | 1.76 µM | 4.03 µM | 1.76 µM | 3.53 µM | 1.73 µM | 3.68 µM | 1.92 µM | 4.31 µM | 4.91 µM | 22.9 µM | 2.83 µM | 11.3 µM
O=C(O)C(=O)CBr | > 21.1 µM and 3.61 µM | > 40.2 µM and 13 µM | > 47.5 µM and 25.3 µM | > 76.8 µM and 62.5 µM | > 32.5 µM and 14.7 µM | > 47.3 µM and 28 µM | 64 µM and 17 µM | > 100 µM and 31 µM | > 100 µM | > 100 µM | > 78.3 µM and 18.4 µM | > 100 µM and 33.6 µM | > 44.7 µM and 19 µM | > 62.5 µM and 35.3 µM | 14.4 µM and 7.12 µM | > 52.2 µM and 38.6 µM | > 100 µM and 25.5 µM | > 100 µM and 64.7 µM | > 100 µM | > 100 µM
Cc1cc(O)cc2c1c(=O)c1ccccc1n2C | – | > 100 µM | – | > 100 µM | – | > 100 µM | – | > 100 µM | – | > 100 µM | – | > 100 µM | – | > 100 µM | – | > 100 µM | – | > 100 µM | – | > 100 µM
